“Also recorded” adds a separate entry of the source. Where a SMILES comes first, the peptide text is derived from it. Bridges are numbered along the chain shown (N, C = ends). [ ]: non-standard residue; d: D form. The star is where a group is joined. X1 = CC[C@H](C)CCCCC(=O)*; Dab = NCC[C@H](N)C(=O)O
Key:
[1] = system: Acinetobacter baumannii AB122-D12; test: MIC at the end (T30h) of TK experiments after regrowth, AB122-D12; format: cell-based
Protocol: (§1) PMB MICs of both A. baumannii strains were determined in commercial CAMHB (BioMérieux, Marcy-l’Etoile, France) according to the European Committee on Antimicrobial Susceptibility Testing and Clinical and Laboratory Standards Institute (CLSI) recommendations ([33], [34]). PMB MICs of the two A. baumannii isolates were also determined at least in duplicate in CAMHB supplemented with 1% of mucin.
Samples were centrifuged (8 minutes at 8,000 rpm); then, the supernates were removed, and the pellets were stored at −80°C in CAMHB-glycerol 20%. A minimum bacterial density of ~10^5 CFU/mL in samples collected at the end of TK experiments was required for MIC susceptibility testing and sequencing.
Prior to MIC testing, the isolates were streaked onto a drug-free Mueller-Hinton agar plate and incubated for 24 h.

[2] = system: Acinetobacter baumannii AB121-D0; test: Time-kill experiments and PK/PD modeling, AB121-D0; format: cell-based; conditions: for Unbound PMB concentrations at which regrowth was observed in TK: CAMHB + 1% mucin
Protocol: (§2) Bacteria were cultured overnight under shaking (150–170 rpm) in CAMHB at 35°C. The bacterial suspension was then diluted to 1/50 and incubated at 35°C under shaking until an optical density of 0.3 (corresponding to 1.10^8 CFU/ml of bacteria in the exponential growth phase) was achieved. This bacterial suspension was then diluted in order to obtain a starting inoculum at 1.10^6 CFU/mL. TK experiments were performed in CAMHB in the absence and presence of 1% mucin. PMB concentrations varied from 0.5 mg/L to 128 mg/L for AB121-D0 and 8 mg/L to 512 mg/L for AB122-D12. Drug-free CAMHB was used as bacterial growth control for each strain. Tubes were incubated at 35°C under shaking (150–170 rpm), and aliquots were sampled over time at T0h, T1h, T3h, T6h, T10h, T24h, and T30h. Samples were serially diluted in NaCl 0.9% and plated onto Mueller-Hinton agar supplemented with 1% activated charcoal (to prevent PMB carry-over effect). Bacteria were counted after overnight incubation at 35°C. The limit of quantification was fixed based on CLSI guidelines ([38]) and was equal to 400 CFU/ml (i.e. 2.6 log10 CFU/mL). Experiments were conducted in triplicate for both strains.
(§3) Bacterial counts obtained from TK experiments without mucin were first modeled using NONMEM 7.4 (ICON plc, Dublin, Ireland) with the Laplacian algorithm and the M3 method for handling observations below the limit of quantification ([39]). PMB was assumed to be stable over the course of the experiment as previously shown ([40]). A previously described model with hetero-resistance ([41]), that is, two bacterial subpopulations, one susceptible to PMB (S) and one resistant (R), was used to describe the time course of bacterial counts for the two A. baumannii strains (Fig. 1). Different functions were tested to characterize the PMB killing effect (see supplemental material for model building).
Then, TK data in the presence of mucin were included in the data set and PMB total concentrations were corrected for mucin binding using equation 1, with unbound PMB concentrations driving the antibacterial effect. Random variability between TK experiments (one experiment corresponding to a replicate of a tested concentration) was included to account for the uncertainty associated with each parameter of equation 1 and thus with the estimation of unbound PMB concentration in TK, such as:
An impact of mucin on PD model parameters was tested on top of PMB binding to mucin with the following equation:
(4) Pj=θj,1×(1−Mucin)+θj,2×Mucin,
where Pj was the jth parameter of the PD model, Mucin was a categorical variable either equal to 0 or 1 depending on its absence or presence in TK experiments respectively, θj,1 and θj,2 corresponded to the Pj value in the absence and in the presence of mucin, respectively. […]

[3] = system: Acinetobacter baumannii AB122-D12; test: Time-kill experiments and PK/PD modeling, AB122-D12; format: cell-based
Protocol: as §2, §3
Then, TK data in the presence of mucin were included in the data set and PMB total concentrations were corrected for mucin binding using equation 1, with unbound PMB concentrations driving the antibacterial effect. […]

[4] = assumed for TK modeling, as previously shown; cited from earlier work
From the text: as §3, with “w ...” for “were tested to characterize the PMB killing effect (see supplemental material for model building).”

[5] = system: Acinetobacter baumannii AB121-D0; test: PMB MIC in CAMHB with or without 1% mucin, AB121-D0; format: cell-based
Protocol: (§4) Two clinical MDR strains of A. baumannii, isolated from a patient before (AB121-D0) and 12 days after treatment with colistin (AB122-D12), were used during this study ([32]). AB122-D12 carries a 10 amino acid insertion into the pmrB gene, known to confer PMB resistance.
as §1

[6] = system: Acinetobacter baumannii AB122-D12; test: PMB MIC in CAMHB with or without 1% mucin, AB122-D12; format: cell-based
Protocol: as §4, §1

[7] = CAMHB + 1% mucin, unbound MIC = MIC x fu
[8] = MIC with 1% mucin corrected by fu

CC[C@H](C)CCCCC(=O)N[C@@H](CCN)C(=O)N[C@H](C(=O)N[C@@H](CCN)C(=O)N[C@H]1CCNC(=O)[C@H]([C@@H](C)O)NC(=O)[C@H](CCN)NC(=O)[C@H](CCN)NC(=O)[C@H](CC(C)C)NC(=O)[C@@H](Cc2ccccc2)NC(=O)[C@H](CCN)NC1=O)[C@@H](C)O [PMB, polymyxin B] (X1-[Dab]T[Dab][Dab][Dab][dF]L[Dab][Dab]T; lactam 4-C)
MIC fold-change vs control of respective replicate ([1]; TK in CAMHB + 1% mucin, PMB 48 mg/L, replicate 2, lpxA Ser224Pro): 4
MIC fold-change vs control of respective replicate ([1]; TK in CAMHB + 1% mucin, PMB 135 mg/L, replicate 3, ISAba13 insertion in the promoter of lpxC): 8
MIC fold-change vs control of respective replicate ([1]; TK in CAMHB + 1% mucin, PMB 135 mg/L, replicate 4, ISAba13 insertion in the promoter of lpxC): 4
MIC fold-change vs control of respective replicate ([1]; TK in CAMHB, PMB 16 mg/L, replicate 1, lpxA Arg258Leu): 4
MIC fold-change vs control of respective replicate ([1]; TK in CAMHB, PMB 128 mg/L, replicate 1, lpxA Trp206Arg Thr210Ala): 2
MIC fold-change vs control of respective replicate ([1]; TK in CAMHB, PMB 128 mg/L, replicate 2, lpxA Trp206Arg Thr210Ala): 0.25
Regrowth samples at T30h with ≥fourfold increase in MIC compared with control ([1]; TK in the absence of mucin, 2/18 samples): 11%
Regrowth samples at T30h with ≥fourfold increase in MIC compared with control ([1]; TK in the presence of mucin, 5/26 samples): 19%
Cases of regrowth associated with an increase in the MIC at T30h ([1]; with and without mucin together): 16%
Fold increase of EmaxR in the presence of mucin ([2]; 1% mucin vs no mucin): 1.4 fold
Unbound PMB concentrations at which regrowth was observed in TK ([2]; one-third of replicates): ≤ 13 mg/L
Unbound PMB concentrations at which regrowth was observed in TK ([2]; two-thirds of replicates): ≤ 0.5 mg/L
PMB concentrations up to which regrowth was observed in TK after initial CFU decay ([2]; CAMHB without mucin, 30 h): up to 8 mg/L
Fold increase of EC50 in the presence of mucin ([3]; 1% mucin vs no mucin, both S and R subpopulations): increased approx. fivefold; also recorded: fivefold increase
Unbound PMB concentration able to prevent bacterial regrowth in TK ([3]; CAMHB + 1% mucin, no concentration in the range tested prevented regrowth): > 304 mg/L
PMB concentrations up to which regrowth was observed in TK after initial CFU decay ([3]; CAMHB without mucin, 30 h): ≤ 128 mg/L
Stability over the course of the experiment [4]: stable
MICu (corrected by fu) [5, 7]: 13 mg/L
MICu ratio in the presence and absence of mucin [5, 8]: 13
Fold increase of MIC in the presence of 1% mucin compared to CAMHB ([5]; total concentrations): 64 fold
MICu (corrected by fu) [6, 7]: 628 mg/L
MICu ratio in the presence and absence of mucin [6, 8]: 20
Fold increase of MIC in the presence of 1% mucin compared to CAMHB ([6]; total concentrations): 32 fold

Reference: article PMC12057341, “In vitro pharmacokinetic/pharmacodynamic modeling of the effect of mucin on polymyxin B activity against Acinetobacter baumannii” (Antimicrobial Agents and Chemotherapy, 2025)
